Test results from ChEMBL document CHEMBL5096167, “Recent advances in development of hetero-bivalent kinase inhibitors” (Eur J Med Chem, 2021).
*1 amine or outer side, *2 acyl side, *3 side chain or, on linkers, in order; H or OH if unused. Where a SMILES comes first, the peptide text is derived from it. [ ]: non-standard residue; d: D form. The star is where a group is joined. ξ: configuration not given here. X1 = Brc1c(Br)c(Br)c2[nH]c(NCCCN*)nc2c1Br; X2 = O=C(Cc1c(Br)c(Br)c(Br)c2[nH]nnc12)*; Suc = O=C(CCC(=O)[*:2])[*:1]; ξE = NC(CCC(=O)O)C(=O)O; ξS = NC(CO)C(=O)O

Key:
[1] = Inhibition of CK2alpha2beta2 (unknown origin); design: species or system Homo sapiens
[2] = target: Mitogen-activated protein kinase 1 (Homo sapiens, UniProt P28482)
Ephrin type-A receptor 3 = target: T1, Ephrin type-A receptor 3 (Homo sapiens, UniProt P29320); test: Inhibition of EPHA3 (unknown origin) assessed as dissociation constant by ELISA-like binding assay
T1 sequence (P29320 whole entry): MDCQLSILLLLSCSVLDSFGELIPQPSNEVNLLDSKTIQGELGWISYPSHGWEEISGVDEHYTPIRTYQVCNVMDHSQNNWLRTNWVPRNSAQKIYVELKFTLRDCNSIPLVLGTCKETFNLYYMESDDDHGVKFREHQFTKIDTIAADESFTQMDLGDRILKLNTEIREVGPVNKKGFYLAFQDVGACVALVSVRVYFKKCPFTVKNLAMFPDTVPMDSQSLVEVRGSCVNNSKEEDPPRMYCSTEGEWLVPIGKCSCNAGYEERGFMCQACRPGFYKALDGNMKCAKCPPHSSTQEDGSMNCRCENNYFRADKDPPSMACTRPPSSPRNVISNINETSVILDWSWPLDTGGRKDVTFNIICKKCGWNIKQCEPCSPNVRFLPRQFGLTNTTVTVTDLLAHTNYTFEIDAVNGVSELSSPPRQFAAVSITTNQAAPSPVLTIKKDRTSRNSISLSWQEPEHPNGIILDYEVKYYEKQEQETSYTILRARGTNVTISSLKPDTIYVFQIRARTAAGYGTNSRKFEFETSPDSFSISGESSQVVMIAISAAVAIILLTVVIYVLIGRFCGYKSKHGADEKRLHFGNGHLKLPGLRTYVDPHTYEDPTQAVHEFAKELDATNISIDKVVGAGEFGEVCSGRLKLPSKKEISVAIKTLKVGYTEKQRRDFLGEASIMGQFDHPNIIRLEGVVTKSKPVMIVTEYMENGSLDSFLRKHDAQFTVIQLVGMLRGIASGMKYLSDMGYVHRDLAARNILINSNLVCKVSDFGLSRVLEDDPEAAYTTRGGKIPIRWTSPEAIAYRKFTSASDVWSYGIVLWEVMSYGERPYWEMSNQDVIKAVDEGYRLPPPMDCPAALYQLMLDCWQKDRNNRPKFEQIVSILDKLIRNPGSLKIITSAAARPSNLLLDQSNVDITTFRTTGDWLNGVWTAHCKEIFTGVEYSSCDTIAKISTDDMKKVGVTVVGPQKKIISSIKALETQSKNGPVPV

[3] = Binding affinity to full length human recombinant PKAc assessed as dissociation constant
Homo sapiens [4] = species: Homo sapiens
[5] = target: T2, Serine/threonine-protein kinase haspin (Homo sapiens, UniProt Q8TF76)
T2 sequence (Q8TF76 whole entry): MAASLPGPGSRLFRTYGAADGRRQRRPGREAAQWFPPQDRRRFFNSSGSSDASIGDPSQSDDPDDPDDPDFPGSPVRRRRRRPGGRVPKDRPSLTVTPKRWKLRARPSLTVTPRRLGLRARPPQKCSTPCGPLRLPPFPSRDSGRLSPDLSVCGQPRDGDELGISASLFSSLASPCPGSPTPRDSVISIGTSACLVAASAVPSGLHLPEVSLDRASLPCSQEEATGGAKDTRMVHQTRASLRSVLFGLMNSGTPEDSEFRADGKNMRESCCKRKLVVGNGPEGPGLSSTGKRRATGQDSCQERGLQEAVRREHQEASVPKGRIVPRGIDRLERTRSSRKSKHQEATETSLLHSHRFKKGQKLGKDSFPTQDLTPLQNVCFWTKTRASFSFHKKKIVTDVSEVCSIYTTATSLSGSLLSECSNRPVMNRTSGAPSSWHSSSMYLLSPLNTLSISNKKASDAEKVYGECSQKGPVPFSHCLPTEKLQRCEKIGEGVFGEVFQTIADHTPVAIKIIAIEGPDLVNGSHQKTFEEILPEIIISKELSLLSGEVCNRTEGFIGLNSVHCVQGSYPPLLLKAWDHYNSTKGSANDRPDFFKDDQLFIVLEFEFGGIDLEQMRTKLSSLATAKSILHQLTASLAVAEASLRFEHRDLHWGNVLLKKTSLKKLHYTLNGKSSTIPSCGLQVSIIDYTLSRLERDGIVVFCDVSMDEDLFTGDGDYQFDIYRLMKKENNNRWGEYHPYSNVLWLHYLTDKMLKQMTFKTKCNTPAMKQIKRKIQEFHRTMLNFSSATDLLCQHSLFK

[6] = target: T2, Serine/threonine-protein kinase haspin; remark: listed apart in the source
[7] = target: T3, cAMP-dependent protein kinase (PKA) (Homo sapiens, UniProt P22694+P17612+P22612); test: Binding affinity to PKA (unknown origin) assessed as dissociation constant; type: protein assay
Homo sapiens [8] = species: Homo sapiens; test: Selectivity ratio of Kd for inhibition of Untagged full length human PKAc alpha expressed in Escherichia coli BL21 DE3 cells assessed as dissociation constant to Kd for inhibition of ROCK2 (unknown origin)
[9] = Inhibition of AKR3 (unknown origin) assessed as dissociation constant; design: species or system Homo sapiens
[10] = Binding affinity to PKAc (unknown origin) assessed as dissociation constant; design: species or system Homo sapiens
Homo sapiens [11] = species: Homo sapiens; test: Selectivity ratio of Kd for inhibition of Untagged full length human PKAc alpha expressed in Escherichia coli BL21 DE3 cells assessed as dissociation constant to Kd for AKR3
[12] = target: Rho-associated protein kinase 2 (Homo sapiens, UniProt O75116); test: Inhibition of ROCK2 (unknown origin) assessed as dissociation constant
[13] = target: T3, cAMP-dependent protein kinase (PKA)
Casein kinase 2 = Casein kinase 2 (Homo sapiens, UniProt P67870+P68400+P19784+Q8NEV1); test: Inhibition of human CK2; type: protein assay
[14] = target: Casein kinase II subunit alpha (Homo sapiens, UniProt P68400); test: Inhibition of CK2alpha in human MIA PaCa-2 cells incubated for 5 hrs by western blot analysis; type: cell-based
Sequence of Casein kinase II subunit alpha (P68400 whole entry): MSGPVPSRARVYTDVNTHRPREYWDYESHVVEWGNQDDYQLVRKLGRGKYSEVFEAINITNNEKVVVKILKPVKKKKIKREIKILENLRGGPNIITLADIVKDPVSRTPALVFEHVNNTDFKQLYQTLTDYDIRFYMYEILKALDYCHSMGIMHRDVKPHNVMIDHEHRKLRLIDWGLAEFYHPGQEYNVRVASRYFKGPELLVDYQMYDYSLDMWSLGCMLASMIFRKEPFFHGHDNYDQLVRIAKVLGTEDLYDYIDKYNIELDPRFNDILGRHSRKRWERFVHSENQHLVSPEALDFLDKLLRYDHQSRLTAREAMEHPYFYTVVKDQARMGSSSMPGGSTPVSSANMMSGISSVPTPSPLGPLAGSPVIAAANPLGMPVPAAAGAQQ

Sequence of Mitogen-activated protein kinase 1 (P28482 whole entry): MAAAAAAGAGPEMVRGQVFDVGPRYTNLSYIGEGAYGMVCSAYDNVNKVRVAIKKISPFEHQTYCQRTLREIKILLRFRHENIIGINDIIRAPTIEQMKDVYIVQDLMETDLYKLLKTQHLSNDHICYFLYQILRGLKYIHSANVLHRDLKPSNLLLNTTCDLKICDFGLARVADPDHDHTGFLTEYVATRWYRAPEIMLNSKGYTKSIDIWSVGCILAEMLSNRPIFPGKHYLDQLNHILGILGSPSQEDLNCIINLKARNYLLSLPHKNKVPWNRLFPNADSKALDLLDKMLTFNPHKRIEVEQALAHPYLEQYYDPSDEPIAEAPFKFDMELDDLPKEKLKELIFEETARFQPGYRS
Sequence of Rho-associated protein kinase 2 (O75116 whole entry): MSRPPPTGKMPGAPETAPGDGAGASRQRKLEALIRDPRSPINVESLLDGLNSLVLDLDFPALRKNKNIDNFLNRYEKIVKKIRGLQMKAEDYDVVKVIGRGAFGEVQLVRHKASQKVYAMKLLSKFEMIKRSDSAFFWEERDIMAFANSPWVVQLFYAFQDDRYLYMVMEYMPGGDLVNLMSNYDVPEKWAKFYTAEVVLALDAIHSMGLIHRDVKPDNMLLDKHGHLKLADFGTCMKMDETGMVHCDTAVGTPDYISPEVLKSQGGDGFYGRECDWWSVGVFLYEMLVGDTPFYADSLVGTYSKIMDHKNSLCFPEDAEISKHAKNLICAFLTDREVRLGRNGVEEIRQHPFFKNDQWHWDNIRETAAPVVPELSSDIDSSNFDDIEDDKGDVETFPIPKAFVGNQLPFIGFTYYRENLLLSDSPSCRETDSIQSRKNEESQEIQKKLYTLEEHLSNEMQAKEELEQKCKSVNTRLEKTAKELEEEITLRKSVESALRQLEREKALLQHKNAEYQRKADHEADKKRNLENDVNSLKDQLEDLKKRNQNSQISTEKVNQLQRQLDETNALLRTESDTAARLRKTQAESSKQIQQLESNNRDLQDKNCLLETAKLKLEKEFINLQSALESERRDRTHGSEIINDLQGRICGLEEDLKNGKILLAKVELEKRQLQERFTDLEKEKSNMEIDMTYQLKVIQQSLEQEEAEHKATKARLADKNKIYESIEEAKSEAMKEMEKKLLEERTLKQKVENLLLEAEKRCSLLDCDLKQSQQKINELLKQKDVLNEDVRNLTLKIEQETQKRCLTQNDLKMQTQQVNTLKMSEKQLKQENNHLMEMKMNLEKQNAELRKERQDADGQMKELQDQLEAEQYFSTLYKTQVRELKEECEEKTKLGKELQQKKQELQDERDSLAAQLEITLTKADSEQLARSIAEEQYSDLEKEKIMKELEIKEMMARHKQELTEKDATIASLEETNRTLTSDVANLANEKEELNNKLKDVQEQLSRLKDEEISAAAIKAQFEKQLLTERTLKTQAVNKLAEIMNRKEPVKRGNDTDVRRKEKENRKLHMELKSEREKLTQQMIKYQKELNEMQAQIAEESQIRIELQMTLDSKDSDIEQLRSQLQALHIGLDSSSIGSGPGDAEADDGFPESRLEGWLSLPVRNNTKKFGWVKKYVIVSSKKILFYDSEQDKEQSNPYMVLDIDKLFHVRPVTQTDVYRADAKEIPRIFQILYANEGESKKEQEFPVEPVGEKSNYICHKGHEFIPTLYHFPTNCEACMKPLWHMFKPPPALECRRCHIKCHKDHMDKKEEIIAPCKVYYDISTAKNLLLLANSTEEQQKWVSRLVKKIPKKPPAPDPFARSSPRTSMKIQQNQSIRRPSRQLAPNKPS

NCCCNc1nc2c(Br)c(Br)c(Br)c(Br)c2[nH]1
IC50 [1]: 130 nM

C#CCCCCNC(=O)CCCCCn1nc(N)c2cc(-c3c(-c4ccccc4)nn4ccccc34)nnc21
IC50 [2]: 1200 nM

CC(C)(C)n1nc(-c2ccc(Cl)cc2)c2c(N)ncnc21
Kd (Ephrin type-A receptor 3): 200000 nM

C[C@H](N)C(=O)N[C@@H](CCCNC(=N)N)C(=O)N[C@@H](CCCCNC(=O)C[C@@H](NC(=O)CCCCCNC(=O)[C@H]1O[C@@H](n2cc(I)c3c(N)ncnc32)[C@H](O)[C@@H]1O)C(=O)O)C(=O)N[C@@H](CCCNC(=N)N)C(=O)N[C@@H](CCC(=O)O)C(=O)N[C@H](C(=O)N[C@@H](C)C(=O)N[C@H](CCCCN)C(N)=O)[C@H](C)O
Kd [3]: 94 nM | Selectivity Index (Homo sapiens [4]): 4900 | Kd [5]: 0.019 nM | Kd [6]: 0.019 nM

COC(=O)CC[C@H](NC(=O)CCC(=O)NCCCNc1nc2c(Br)c(Br)c(Br)c(Br)c2[nH]1)C(=O)N[C@@H](CCC(=O)OC)C(=O)N[C@@H](CCC(=O)OC)C(=O)N[C@@H](CCC(=O)OC)C(=O)OC ({X1-Suc}-E(OMe)E(OMe)E(OMe)E(OMe)-OMe)
IC50 [1]: 10000 nM

N=C(N)NCCC[C@@H](NC(=O)CCCCCCCC(=O)N1CCN(C2N=CN=C3NC=CC32)CC1)C(=O)N[C@H](CCCNC(=N)N)C(=O)N[C@H](CCCNC(=N)N)C(=O)N[C@H](CCCNC(=N)N)C(=O)N[C@H](CCCNC(=N)N)C(=O)N[C@H](CCCNC(=N)N)C(=O)N[C@H](CCCCN)C(N)=O (some centres undefined)
Kd [7]: 0.1 nM | Ratio (Homo sapiens [8]): 10 | Kd [9]: 310 nM | Kd [10]: 0.003 nM | Selectivity ratio (Homo sapiens [11]): 10 | Kd [12]: 30 nM

CO[C@@H]1[C@H](N(C)C(=O)CCC(=O)O)C[C@H]2O[C@]1(C)n1c3ccccc3c3c4c(c5c6ccccc6n2c5c31)C(=O)NC4
IC50 [13]: 159 nM

CO[C@@H]1[C@H](N(C)C(=O)CCC(=O)NCCCOCCOCCOCCCNC(=O)COCC(=O)N[C@H]2CSSC[C@@H](C(=O)NCC(N)=O)NC(=O)NC(=O)[C@H](Cc3ccccc3)NC(=O)[C@H](C(C)C)NC(=O)[C@H](CCCNC(=N)N)NC(=O)[C@H](Cc3ccccc3)NC(=O)[C@H]([C@@H](C)O)NC2=O)C[C@H]2O[C@]1(C)n1c3ccccc3c3c4c(c5c6ccccc6n2c5c31)C(=O)NC4
IC50 [13]: 2.6 nM

NC(=O)C(CCC(=O)O)NC(=O)C(CCC(=O)O)NC(=O)C(CCC(=O)O)NC(=O)C(CO)NC(=O)C(CCC(=O)O)NC(=O)[C@@H](N)CCCCNC(=O)Cc1c(Br)c(Br)c(Br)c2[nH]nnc12 (some centres undefined) (H-K(X2)[ξE][ξS][ξE][ξE][ξE]-NH2)
IC50 (Casein kinase 2): 670 nM

CC(=O)OCOC(=O)CN(CC(=O)OCOC(C)=O)C(=O)CN(CC(=O)OCOC(C)=O)C(=O)CN(CC(=O)OCOC(C)=O)C(=O)CCCCCCCn1cnc2c(Br)c(Br)c(Br)c(Br)c21
IC50 [14]: 47 nM

CC(C)[C@@H]1NC(=O)[C@H](CCCNC(=N)N)NC(=O)[C@H](Cc2ccccc2)NC(=O)[C@H]([C@@H](C)O)NC(=O)[C@@H](N)CSSC[C@@H](C(=O)NCC(N)=O)NC(=O)NC(=O)[C@H](Cc2ccccc2)NC1=O
IC50 [13]: 57000 nM
